Test results published in US20230053540A1, “TREATMENT OF LIVER INJURY” (Massachusetts Institute of Technology, priority 2019, published 2023).

Tested on: hepatocytes
Assay: Seq-Well scRNA-Seq of hepatocytes after APAP overdose (signature scores, DEG vs untreated)
Assay type: in vivo, mouse
Conditions: A6 vs UT

CC(=O)Nc1ccc(O)cc1 [APAP, acetaminophen]
Ddc avg_logFC: −0.3608 | Ddc pct.1: 0.241 | Ddt avg_logFC: −0.5222 | Ddx3x avg_logFC: 0.6569 | Ddx3y A6logFC: 0.3395 | Ddx5 avg_logFC: 0.5229 | Ddx6 avg_logFC: 0.4443 | Ddx6 pct.1: 0.527 | Ddx21 avg_logFC: 0.7314 | Ddx27 A6logFC: 0.2522 | Ddx27 avg_logFC: 0.2522 | Ddx27 pct.1: 0.286 | Deb1 A6logFC: −0.267 | Deb1 avg_logFC: −0.267 | Deb1 pct.1: 0.274 | Dera A6logFC: −0.2674 | Dera avg_logFC: −0.2674 | Dera pct.1: 0.32 | Derl2 A6logFC: −0.3317 | Dgkd avg_logFC: 0.3708 | Dgkd pct.1: 0.282 | Dhrs3 avg_logFC: −0.4676 | Dhrs3 pct.1: 0.198 | Dhrs4 A6logFC: −0.3321 | Diap1 A6logFC: 0.3259 | Diap1 avg_logFC: 0.3259 | Diap1 pct.1: 0.382 | Dio1 avg_logFC: −0.5453 | Dio1 pct.1: 0.253 | Dkc1 avg_logFC: 0.3258 | Dkc1 pct.1: 0.315 | Dnaja2 A6logFC: 0.3723 | Dnajc5 A6logFC: 0.3265 | Dnajc19 A6logFC: −0.316 | Dot1l avg_logFC: 0.397 | Dot1l pct.1: 0.282 | Dsp A6logFC: 0.2655 | Dsp avg_logFC: 0.2655 | Dsp pct.1: 0.32 | Dst avg_logFC: 0.511 | Dst pct.1: 0.43 | Dusp5 avg_logFC: 0.2964 | Dusp6 avg_logFC: 0.5916 | Dusp16 avg_logFC: 0.4605 | Dusp16 pct.1: 0.372 | Dync1h1 A6logFC: 0.3796 | Eaf1 avg_logFC: 0.5218 | Eaf1 pct.1: 0.427 | Ebpl avg_logFC: −0.4503 | Ebpl pct.1: 0.196 | Eea1 A6logFC: 0.2612 | Eea1 avg_logFC: 0.2612 | Eea1 pct.1: 0.363 | Efhd2 avg_logFC: 0.5838 | Egr1 avg_logFC: 0.5846 | Egr1 pct.1: 0.589 | Eif1a avg_logFC: 0.7953 | Eif3a avg_logFC: 0.3147 | Eif3a pct.1: 0.542 | Eif4a1 A6logFC: 0.2519 | Eif4a1 avg_logFC: 0.2519 | Eif4a1 pct.1: 0.418 | Eif4b A6logFC: 0.3682 | Eif4ebp1 A6logFC: 0.2617 | Eif4ebp1 avg_logFC: 0.2617 | Eif4ebp1 pct.1: 0.387 | Eif4g1 avg_logFC: 0.3749 | Eif4g1 pct.1: 0.723 | Eif4g2 avg_logFC: 0.5597 | Eifia A6logFC: 0.3147 | Eifib A6logFC: 0.2503 | Eific A6logFC: 0.302 | Ell2 avg_logFC: 0.4172 | Ell2 pct.1: 0.535 | Elovl3 avg_logFC: −0.5067 | Elovl3 pct.1: 0.568 | Elovl5 A6logFC: 0.3352 | Elovl5 avg_logFC: 0.3352 | Elovl5 pct.1: 0.63 | Epas1 avg_logFC: 0.7758 | Epb4.1 avg_logFC: 0.5628 | Epb4.1 pct.1: 0.537 | Erf3b avg_logFC: 0.2503 | Erf3b pct.1: 0.449 | Errfi1 avg_logFC: 0.3937 | Errfi1 pct.1: 0.943 | Etnppl avg_logFC: 0.4182 | Etnppl pct.1: 0.706 | Ets2 avg_logFC: 0.6956 | Fabp1 avg_logFC: −1.016 | Fabp2 avg_logFC: −0.6156 | Fam25c A6logFC: −0.2977 | Fam107b avg_logFC: 0.4633 | Fam107b pct.1: 0.449 | Fam134b avg_logFC: 0.8936 | Fam195a A6logFC: −0.2649 | Fam214a A6logFC: −0.2658 | Fbxo21 A6logFC: −0.2631 | Fcgr3 avg_logFC: 0.3082 | Fcgr3 pct.1: 0.107 | Fdps A6logFC: −0.2663 | Fdx1 avg_logFC: −0.6234 | Fga avg_logFC: 0.6934 | Fgb avg_logFC: 0.6469 | Fgg avg_logFC: 0.6153 | Fitm1 avg_logFC: −0.3242 | Fitm1 pct.1: 0.012 | Fkbp5 avg_logFC: 0.5161 | Fndc3b avg_logFC: 0.4096 | Fndc3b pct.1: 0.315 | Fpgs avg_logFC: −0.3494 | Fpgs pct.1: 0.146 | Ftsj3 A6logFC: 0.2552 | Ftsj3 avg_logFC: 0.2552 | Ftsj3 pct.1: 0.346 | Furin avg_logFC: 0.2536 | Furin pct.1: 0.477 | Fus A6logFC: 0.3393 | Fxyd1 avg_logFC: −0.4799 | Fxyd1 pct.1: 0.432 | Fxyd5 avg_logFC: 0.2743 | G6pc avg_logFC: −0.9601 | Gabarap avg_logFC: −0.4425 | Gabarap pct.1: 0.518 | Gadd45a A6logFC: 0.2829 | Gadd45a avg_logFC: 0.2829 | Gadd45a pct.1: 0.251 | Gadd45gip1 A6logFC: −0.3041 | Gamt avg_logFC: −0.5603 | Gars A6logFC: 0.2576 | Gars avg_logFC: 0.2576 | Gars pct.1: 0.334 | Gcat A6logFC: −0.2587 | Gcat avg_logFC: −0.2587 | Gcat pct.1: 0.315 | Gcgr A6logFC: −0.2576 | Gcgr avg_logFC: −0.2576 | Gcgr pct.1: 0.446 | Gch1 avg_logFC: −0.2691 | Gch1 pct.1: 0.461 | Gclc avg_logFC: 1.903 | Gclm avg_logFC: 0.2699 | Gclm pct.1: 0.695 | Gcnt2 avg_logFC: 0.5375 | Gda A6logFC: 0.2663 | Gda avg_logFC: 0.2663 | Gda pct.1: 0.243 | Gfra1 avg_logFC: 0.3864 | Gfra1 pct.1: 0.599 | Gjb2 avg_logFC: 0.6082 | Gldc A6logFC: 0.2802 | Gldc avg_logFC: 0.2802 | Gldc pct.1: 0.465 | Glo1 avg_logFC: −0.4066 | Glo1 pct.1: 0.513 | Glyat avg_logFC: −0.6477 | Glyctk A6logFC: 0.2977 | Gm4952 avg_logFC: −0.4987 | Gm4952 pct.1: 0.198 | Gm5424 A6logFC: 0.2698 | Gm5424 avg_logFC: 0.2698 | Gm5424 pct.1: 0.411 | Gm13775 avg_logFC: −1.066 | Gm15564 avg_logFC: 1.443 | Gm20594 A6logFC: 0.2957 | Gm23388 avg_logFC: 0.4162 | Gm23388 pct.1: 0.222 | Gm23935 avg_logFC: 0.4242 | Gm23935 pct.1: 0.878 | Gm24187 avg_logFC: 0.4319 | Gm24187 pct.1: 0.2 | Gm24601 avg_logFC: 0.4684 | Gm26917 avg_logFC: 0.6012 | Gm26917 pct.1: 0.382 | Gm26924 avg_logFC: 1.161 | Gn13 avg_logFC: 0.576 | Gnai2 A6logFC: 0.2817 | Gnai2 avg_logFC: 0.2817 | Gnai2 pct.1: 0.391 | Gnas A6logFC: 0.2589 | Gnas avg_logFC: 0.2589 | Gnas pct.1: 0.79 | Gne avg_logFC: −0.4251 | Gne pct.1: 0.263 | Gnl2 avg_logFC: 0.3905 | Gnl2 pct.1: 0.384 | Gnmt avg_logFC: −0.3334 | Gnmt pct.1: 0.962 | Golga4 avg_logFC: 0.3521 | Gpt2 avg_logFC: 0.5391 | Gpx1 avg_logFC: −0.7686 | Grn avg_logFC: 0.5408 | Gsk3b avg_logFC: 0.4065 | Gsk3b pct.1: 0.384 | Gsr A6logFC: 0.4128 | Gsta1 avg_logFC: 0.4076 | Gstk1 A6logFC: −0.2828 | Gstk1 avg_logFC: −0.2828 | Gstk1 pct.1: 0.351 | Gstm3 avg_logFC: −0.4111 | Gstm3 pct.1: 0.265 | Gstz1 avg_logFC: −0.4641
